Experimental data reported in patent US20240150377A1, “MODULATORS OF CYSTIC FIBROSIS TRANSMEMBRANE CONDUCTANCE REGULATOR” (VERTEX PHARMACEUTICALS INCORPORATED, priority 2020, published 2024).
Like-named read-outs stand apart in the source and are kept apart here.

Tests used:
CFTR [1] = biological target: CFTR (Homo sapiens, UniProt P13569); assay: Membrane potential dye, Enteroid Assay A; assay type: cell-based; conditions: for Ent. A Max Activity: chloride transport as % of triple combination control (Enteroid Assay A); for EC50: human enteroid cells, 18-24 hours, acute 10 μM forskolin and 300 nM ivacaftor, read-out: Ent. A EC50
Chain of CFTR (Homo sapiens, UniProt P13569) (P13569 with tags, fused parts or gaps DEL508-508): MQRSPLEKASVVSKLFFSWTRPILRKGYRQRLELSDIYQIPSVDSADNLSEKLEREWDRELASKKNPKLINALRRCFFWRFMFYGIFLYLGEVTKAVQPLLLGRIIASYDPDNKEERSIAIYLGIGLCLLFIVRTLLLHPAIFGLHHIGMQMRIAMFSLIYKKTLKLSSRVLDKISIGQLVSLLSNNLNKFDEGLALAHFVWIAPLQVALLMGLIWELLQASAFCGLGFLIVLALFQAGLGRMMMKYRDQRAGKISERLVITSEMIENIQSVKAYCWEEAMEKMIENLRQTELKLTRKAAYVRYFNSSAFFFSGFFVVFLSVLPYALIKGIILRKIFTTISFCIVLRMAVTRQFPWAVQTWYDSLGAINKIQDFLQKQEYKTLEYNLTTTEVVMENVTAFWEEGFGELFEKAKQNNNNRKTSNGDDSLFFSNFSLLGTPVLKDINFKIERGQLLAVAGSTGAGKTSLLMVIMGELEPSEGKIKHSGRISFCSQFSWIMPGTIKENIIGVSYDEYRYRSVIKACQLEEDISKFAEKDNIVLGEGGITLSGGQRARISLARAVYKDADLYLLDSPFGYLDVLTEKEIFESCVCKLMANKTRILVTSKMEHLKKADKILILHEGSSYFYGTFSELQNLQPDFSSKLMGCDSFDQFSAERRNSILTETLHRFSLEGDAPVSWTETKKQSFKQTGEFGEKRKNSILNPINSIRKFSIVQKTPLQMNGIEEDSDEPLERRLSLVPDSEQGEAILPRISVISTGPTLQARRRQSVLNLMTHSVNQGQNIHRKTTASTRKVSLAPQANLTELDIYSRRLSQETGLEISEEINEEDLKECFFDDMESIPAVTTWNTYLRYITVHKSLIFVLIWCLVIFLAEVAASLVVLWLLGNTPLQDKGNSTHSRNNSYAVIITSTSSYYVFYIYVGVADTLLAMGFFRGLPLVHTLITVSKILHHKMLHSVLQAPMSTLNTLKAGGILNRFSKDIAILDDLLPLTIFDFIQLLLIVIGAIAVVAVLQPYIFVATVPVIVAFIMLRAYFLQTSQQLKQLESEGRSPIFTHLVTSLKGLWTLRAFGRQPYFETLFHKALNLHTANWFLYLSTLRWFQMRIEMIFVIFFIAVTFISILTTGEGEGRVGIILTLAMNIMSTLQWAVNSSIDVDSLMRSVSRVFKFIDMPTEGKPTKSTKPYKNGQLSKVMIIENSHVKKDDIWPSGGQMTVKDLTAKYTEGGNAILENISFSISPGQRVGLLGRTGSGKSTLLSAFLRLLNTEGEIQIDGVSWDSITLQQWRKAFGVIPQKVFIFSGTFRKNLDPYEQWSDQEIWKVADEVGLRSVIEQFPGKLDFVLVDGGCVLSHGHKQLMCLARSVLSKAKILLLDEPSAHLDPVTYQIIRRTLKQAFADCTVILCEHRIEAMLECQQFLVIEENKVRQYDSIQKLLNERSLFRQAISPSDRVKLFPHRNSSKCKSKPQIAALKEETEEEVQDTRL
Summary of the method: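 Human intestinal enteroids incubated 18-24 h at 37 °C with test compound, then loaded with 20 μM methyl oxonol (with CaCC inhibitors). Chloride transport triggered in chloride-free buffer with 10 μM forskolin, 100 μM IBMX, 300 nM Compound III; fluorescence read 15 min, expressed as % of a triple-combination corrector/potentiator control.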

[2] = amide bond, 13-membered ring, DMF
CFTR [3] = biological target: T1, CFTR (Homo sapiens, UniProt P13569, DEL508-508); assay: HBE assay: Ussing chamber assay of CFTR-mediated short-circuit currents; assay type: cell-based
T1 construct: endogenous in cells; host or cells: primary human bronchial epithelial cells from CF subjects (F508del/MF-HBE), differentiated at air-liquid interface
T1 sequence (P13569 with tags, fused parts or gaps DEL508-508): as above
Summary of the method: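 CFTR-mediated Isc (μA/cm²) equals the peak response to apical 20 μM forskolin minus the residual after a 20 μM each BPO/GlyH-101/CFTR inhibitor 172 cocktail, recorded in Ussing chambers at Vhold 0 mV, 37 °C, pH 7.4, with 30 μM apical amiloride. Cells were F508del/MF HBE cultures preincubated 18-24 h with corrector (concentration range or 10 μM) plus 1 μM ivacaftor in 20% human serum.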

CFTR [4] = biological target: T1, CFTR; assay: HBE2 assay: Ussing chamber assay of CFTR-mediated short-circuit currents; assay type: cell-based; conditions: F508del/MF-HBE cells, with 44 nM potentiator, 18-24 hours, 20% human serum; for Emax: read-out: HBE2 Max activity (%)
Summary of the method: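 F508del/MF-HBE cultured >14 days at air-liquid interface, mounted in Ussing chambers; transepithelial short-circuit current recorded under voltage clamp (Vhold=0 mV) at 37 °C. CFTR-mediated ISC (μA/cm^2) taken as peak forskolin response relative to steady-state current after inhibition; corrector activity assessed this way.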

[5] = HBE assay, 10 μM, read-out: HBE Activity at 10 μM (%)

With `Cc1cccc(C)c1-c1cc2nc(n1)NS(=O)(=O)c1cccc(c1)C(=O)N(C)CC(c1ccc(C(C)(C)C)cc1)O2` (racemic) [Compound 10, 10-(4-tert-butylphenyl)-6-(2,6-dimethylphenyl)-12-methyl-2,2-dioxo-9-oxa-2λ^6-thia-3,5,12,19-tetrazatricyclo[12.3.1.14,8]nonadeca-1(18),4(19),5,7,14,16-hexaen-13-one] the “Ent. A Max Activity” value (CFTR [1]; Table 6) was “+++ (+++ is >60%)”, the EC50 (CFTR [1]; Table 6) was < 1000 nM and the ring closure, yield after HPLC ([2]; from CNCC(Oc1cc(-c2c(C)cccc2C)nc(NS(=O)(=O)c2cccc(C(=O)O)c2)n1)c1ccc(C(C)(C)C)cc1, HATU/DIEA, 15.4 mM, 25.0 °C, 0.25 h, 2 steps) was 19%.

In the case of `Cc1cccc(C)c1-c1cc2nc(n1)NS(=O)(=O)c1cccc(c1)C(=O)N(C)CC(c1cccc(C(C)(C)C)c1)O2` (racemic) [Compound 16, 10-(3-tert-butylphenyl)-6-(2,6-dimethylphenyl)-12-methyl-2,2-dioxo-9-oxa-2λ^6-thia-3,5,12,19-tetrazatricyclo[12.3.1.14,8]nonadeca-1(18),4(19),5,7,14,16-hexaen-13-one], the “Ent. A Max Activity” value (CFTR [1]; Table 7) is reported as “++ (++ is 30-60%)”, the EC50 (CFTR [1]; Table 7) is reported as < 1000 nM and the ring closure, yield after HPLC ([2]; from CNCC(Oc1cc(-c2c(C)cccc2C)nc(NS(=O)(=O)c2cccc(C(=O)O)c2)n1)c1cccc(C(C)(C)C)c1, HATU/DIEA, 32.6 mM, 25.0 °C, 1.0 h, 2 steps) is reported as 51%.

In the case of `Cc1cccc(C)c1-c1cc2nc(n1)NS(=O)(=O)c1cccc(c1)C(=O)N(CCC(C)(C)C)CC(c1ccc(C(C)(C)C)cc1)O2` (stereo not drawn) [Compound 14, 10-(4-tert-butylphenyl)-12-(3,3-dimethylbutyl)-6-(2,6-dimethylphenyl)-2,2-dioxo-9-oxa-2λ^6-thia-3,5,12,19-tetrazatricyclo[12.3.1.14,8]nonadeca-1(18),4(19),5,7,14,16-hexaen-13-one], the “Ent. A Max Activity” value (CFTR [1]; Table 6) is reported as “++ (++ is 30-60%)”, the EC50 (CFTR [1]; Table 6) is reported as < 1000 nM and the ring closure, yield after HPLC ([2]; from Cc1cccc(C)c1-c1cc(OC(CNCCC(C)(C)C)c2ccc(C(C)(C)C)cc2)nc(NS(=O)(=O)c2cccc(C(=O)O)c2)n1, HATU/TEA, 0.42 h, 2 steps) is reported as 6%.

With `Cc1cccc(C)c1-c1cc2nc(n1)NS(=O)(=O)c1cccc(c1)C(=O)N(CCC1CCOCC1)C(CCC1(C(F)(F)F)CC1)CO2` (stereo not drawn) [Compound 74, 6-(2,6-dimethylphenyl)-2,2-dioxo-12-(2-tetrahydropyran-4-ylethyl)-11-[2-[1-(trifluoromethyl)cyclopropyl]ethyl]-9-oxa-2λ^6-thia-3,5,12,19-tetrazatricyclo[12.3.1.14,8]nonadeca-1(18),4(19),5,7,14,16-hexaen-13-one] the “Ent. A Max Activity” value (CFTR [1]; Table 6) was “+++ (+++ is >60%)”, the EC50 (CFTR [1]; Table 6) was < 1000 nM and the ring closure, yield after HPLC ([2]; from Cc1cccc(C)c1-c1cc(OCC(CCC2(C(F)(F)F)CC2)NCCC2CCOCC2)nc(NS(=O)(=O)c2cccc(C(=O)O)c2)n1, HATU/DIEA, 24.1 mM, 16.0 h) was 23%.

For `Cc1cccc(C)c1-c1cc2nc(n1)NS(=O)(=O)c1cccc(c1)C(=O)N(Cc1cnn3ccccc13)[C@H](CC(C)(C)C)CO2` [Compound 139, (11R)-6-(2,6-Dimethylphenyl)-11-(2,2-dimethylpropyl)-12-({pyrazolo[1,5-a]pyridin-3-yl}methyl)-9-oxa-2λ^6-thia-3,5,12,19-tetraazatricyclo[12.3.1.14,8]nonadeca-1(17),4,6,8(19),14(18),15-hexaene-2,2,13-trione], the activation at 10 µM (CFTR [3]; Table 10, at 10 μM, read-out: HBE activity at 10 (μM) (%)) was > 60% and the ring closure, yield after HPLC ([2]; from Cc1cccc(C)c1-c1cc(OC[C@@H](CC(C)(C)C)NCc2cnn3ccccc23)nc(NS(=O)(=O)c2cccc(C(=O)O)c2)n1, HATU/DIEA, 29.4 mM, 4.0 h) was 57%.

In the case of `Cc1cccc(C)c1-c1cc2nc(n1)NS(=O)(=O)c1cccc(c1)C(=O)N(Cc1cn(C)nn1)[C@H](CC(C)(C)C)CO2` [Compound 140, (11R)-6-(2,6-Dimethylphenyl)-11-(2,2-dimethylpropyl)-12-[(1-methyltriazol-4-yl)methyl]-2,2-dioxo-9-oxa-2λ^6-thia-3,5,12,19-tetrazatricyclo[12.3.1.14,8]nonadeca-1(18),4(19),5,7,14,16-hexaen-13-one], the activation at 10 µM (CFTR [3]; Table 11, at 10 μM, read-out: HBE Activity at 10 μM (%)) is reported as > 60% and the ring closure, yield after HPLC ([2]; from Cc1cccc(C)c1-c1cc(OC[C@@H](CC(C)(C)C)NCc2cn(C)nn2)nc(NS(=O)(=O)c2cccc(C(=O)O)c2)n1, HATU/DIEA, 29.1 mM, 15.0 h) is reported as 25%.

In the case of `Cc1cccc(C)c1-c1cc2nc(n1)NS(=O)(=O)c1cccc(c1)C(=O)N(C[C@@H]1CN(C(=O)OC(C)(C)C)CCO1)[C@H](CC(C)(C)C)CO2` [Compound 141, tert-Butyl (2R)-2-[[(11R)-6-(2,6-dimethylphenyl)-11-(2,2-dimethylpropyl)-2,2,13-trioxo-9-oxa-2λ^6-thia-3,5,12,19-tetrazatricyclo[12.3.1.14,8]nonadeca-1(18),4(19),5,7,14,16-hexaen-12-yl]methyl]morpholine-4-carboxylate], the EC50 (CFTR [3]; Table 11, read-out: HBE EC50) is reported as < 1000 nM, the Emax (CFTR [3]; Table 11, read-out: HBE Max Activity (%)) is reported as > 60% and the ring closure, yield after HPLC ([2]; from Cc1cccc(C)c1-c1cc(OC[C@@H](CC(C)(C)C)NC[C@@H]2CN(C(=O)OC(C)(C)C)CCO2)nc(NS(=O)(=O)c2cccc(C(=O)O)c2)n1, CDMT/NMM, 26.4 mM) is reported as 69%.

With `Cc1cccc(C)c1-c1cc2nc(n1)NS(=O)(=O)c1cccc(c1)C(=O)N(Cc1ncc(OC(C)C)cn1)[C@H](CC1(C)CC1)CO2` [Compound 1306, (11R)-6-(2,6-Dimethylphenyl)-12-[(5-isopropoxypyrimidin-2-yl)methyl]-11-[(1-methylcyclopropyl)methyl]-2,2-dioxo-9-oxa-2λ^6-thia-3,5,12,19-tetrazatricyclo[12.3.1.14,8]nonadeca-1(18),4(19),5,7,14,16-hexaen-13-one] the “HBE2 Activity at 3 μM (%)” value (CFTR [4]) was “+++ (+++ is >60+)”, the EC50 (CFTR [4]) was < 1000 nM and the Emax (CFTR [4]) was > 60%. The activation at 10 µM (CFTR [3]; [5]) was > 60% and the ring closure, yield after HPLC ([2]; from Cc1cccc(C)c1-c1cc(OC[C@@H](CC2(C)CC2)NCc2ncc(OC(C)C)cn2)nc(NS(=O)(=O)c2cccc(C(=O)O)c2)n1, CDMT/NMM, 33.8 mM, 4.0 h) was 53%.

For `Cc1cccc(C)c1-c1cc2nc(n1)NS(=O)(=O)c1cccc(c1)C(=O)N(Cc1ncc(N3CC(C)(C)C3)cn1)[C@H](CC1(C)CC1)CO2` [Compound 1307, (11R)-12-[[5-(3,3-Dimethylazetidin-1-yl)pyrimidin-2-yl]methyl]-6-(2,6-dimethylphenyl)-11-[(1-methylcyclopropyl)methyl]-2,2-dioxo-9-oxa-2λ^6-thia-3,5,12,19-tetrazatricyclo[12.3.1.14,8]nonadeca-1(18),4(19),5,7,14,16-hexaen-13-one], the “HBE2 Activity at 3 μM (%)” value (CFTR [4]) was “+++ (+++ is >60+)”, the activation at 10 µM (CFTR [3]; [5]) was > 60% and the ring closure, yield after HPLC ([2]; from Cc1cccc(C)c1-c1cc(OC[C@@H](CC2(C)CC2)NCc2ncc(N3CC(C)(C)C3)cn2)nc(NS(=O)(=O)c2cccc(C(=O)O)c2)n1, CDMT/NMM, 24.2 mM, 3.0 h) was 65%.

In the case of `Cc1cccc(C)c1-c1cc2nc(n1)NS(=O)(=O)c1cccc(c1)C(=O)N(Cc1ncc(OC(C)C)cn1)[C@H](CC1(C)CCC1)CO2` [Compound 1317, (11R)-6-(2,6-Dimethylphenyl)-12-[(5-isopropoxypyrimidin-2-yl)methyl]-11-[(1-methylcyclobutyl)methyl]-2,2-dioxo-9-oxa-2λ6-thia-3,5,12,19-tetrazatricyclo[12.3.1.14,8]nonadeca-1(18),4(19),5,7,14,16-hexaen-13-one], the “HBE2 Activity at 3 μM (%)” value (CFTR [4]) is reported as “+++ (+++ is >60+)” and the ring closure, yield after HPLC ([2]; from Cc1cccc(C)c1-c1cc(OC[C@@H](CC2(C)CCC2)NCc2ncc(OC(C)C)cn2)nc(NS(=O)(=O)c2cccc(C(=O)O)c2)n1, CDMT/NMM, 12.9 mM, 22.0 h) is reported as 64%.

For `Cc1cccc(C)c1-c1cc2nc(n1)NS(=O)(=O)c1cccc(c1)C(=O)N(Cc1cncc(N(C)C3CCC3)n1)[C@H](CCC(C)(C)C)CO2` [Compound 1319, (11R)-12-[[6-[Cyclobutyl(methyl)amino]pyrazin-2-yl]methyl]-11-(3,3-dimethylbutyl)-6-(2,6-dimethylphenyl)-2,2-dioxo-9-oxa-2λ^6-thia-3,5,12,19-tetrazatricyclo[12.3.1.14,8]nonadeca-1(18),4(19),5,7,14,16-hexaen-13-one], the “HBE2 Activity at 3 μM (%)” value (CFTR [4]) was “+++ (+++ is >60+)”, the EC50 (CFTR [4]) was < 1000 nM and the Emax (CFTR [4]) was > 60%. It also gave a ring closure, yield after HPLC ([2]; from Cc1cccc(C)c1-c1cc(OC[C@@H](CCC(C)(C)C)NCc2cncc(N(C)C3CCC3)n2)nc(NS(=O)(=O)c2cccc(C(=O)O)c2)n1, CDMT/NMM, 26.4 mM, 13.1 h) of 44%.
